Test results from PubChem BioAssay AID330 (DTP/NCI, 2004).
“And” between values parts separate entries of the source, which are not always exact repeats. Identical values can stand only once. Toxic doses and inconclusive results are not listed.

Test system: P388 leukemia ip, CD2F1 mice, survival T/C
Experiment: NCI In Vivo Anticancer Drug Screen. Data for tumor model P388 Leukemia (intraperitoneal) in CD2F1 (CDF1) mice
Conditions: endpoint: median survival time, higher = longer survival
In short: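 Mice carrying the transplanted tumor received test compound or vehicle. Survival was recorded in each group, and the value is the treated-group measurement divided by that of the vehicle-treated control group.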

[1] = dose: 50.0 mg/kg/injection, schedule: Q01DX005 (ip), vehicle: saline
[2] = dose: 100.0 mg/kg/injection, schedule: Q01DX005 (ip), vehicle: saline
[3] = dose: 200.0 mg/kg/injection, schedule: Q01DX005 (ip), vehicle: saline
[4] = dose: 50.0 mg/kg/injection, schedule: Q01DX005 (ip), vehicle: Klucel (hydroxypropylcellulose) (HPC)
[5] = dose: 100.0 mg/kg/injection, schedule: Q01DX005 (ip), vehicle: Klucel (hydroxypropylcellulose) (HPC)
[6] = dose: 200.0 mg/kg/injection, schedule: Q01DX005 (ip), vehicle: Klucel (hydroxypropylcellulose) (HPC)
[7] = dose: 50.0 mg/kg/injection, schedule: Q01DX009 (ip), vehicle: Klucel (hydroxypropylcellulose) (HPC)
[8] = dose: 100.0 mg/kg/injection, schedule: Q01DX009 (ip), vehicle: Klucel (hydroxypropylcellulose) (HPC)
[9] = dose: 50.0 mg/kg/injection, schedule: Q01DX009 (ip), vehicle: saline with Tween-80
[10] = dose: 100.0 mg/kg/injection, schedule: Q01DX009 (ip), vehicle: saline with Tween-80
[11] = dose: 200.0 mg/kg/injection, schedule: Q01DX009 (ip), vehicle: saline with Tween-80
[12] = dose: 200.0 mg/kg/injection, schedule: Q01DX009 (ip), vehicle: Klucel (hydroxypropylcellulose) (HPC)

With `CCN1NC1C` (stereo unspecified) the T/C [1] was 105 % of control, the T/C [2] was 97 % of control and the T/C [3] was 97 % of control.
For `O=C(c1ccccc1Cl)n1oc2ccccc2c1=O`, the T/C [4] was 97 % of control, the T/C [5] was 110 % of control and the T/C [6] was 106 % of control.
For `COc1cccc2c1C(=O)c1c(O)c3c(c(O)c1C2=O)C[C@@](O)(/C(CO)=N/NC(=O)c1ccc(Cl)c(Cl)c1)C[C@@H]3OC1CC(NC(=S)Nc2ccc(F)cc2)C(O)C(C)O1` (stereo partly specified), the T/C (dose: 0.1 mg/kg/injection, schedule: Q01DX009 (ip), vehicle: water) was 99 % of control, the T/C (dose: 0.2 mg/kg/injection, schedule: Q01DX009 (ip), vehicle: water) was 113 % of control and the T/C (dose: 0.4 mg/kg/injection, schedule: Q01DX009 (ip), vehicle: water) was 109 % of control. The T/C (dose: 0.8 mg/kg/injection, schedule: Q01DX009 (ip), vehicle: water) was 111 % of control, the T/C (dose: 12.5 mg/kg/injection, schedule: Q01DX009 (ip), vehicle: water) was 94 % of control and the T/C (dose: 25.0 mg/kg/injection, schedule: Q01DX009 (ip), vehicle: water) was 91 % of control and 94 % of control. The T/C (dose: 50.0 mg/kg/injection, schedule: Q01DX009 (ip), vehicle: water) was 91 % of control and the T/C (dose: 100.0 mg/kg/injection, schedule: Q01DX009 (ip), vehicle: water) was 92 % of control.
With `CCc1cccc(C)c1NC(=O)C(=O)CC(=O)c1ccccc1Cl` the T/C [1] was 103 % of control, the T/C [2] was 107 % of control and the T/C [3] was 103 % of control.
In the case of `CCn1c(Cl)c(/C=N\Nc2ccccc2[N+](=O)[O-])c2ccccc21`, the T/C (dose: 12.5 mg/kg/injection, schedule: Q01DX001 (ip), vehicle: Klucel (hydroxypropylcellulose) (HPC)) is reported as 94 % of control and the T/C (dose: 25.0 mg/kg/injection, schedule: Q01DX001 (ip), vehicle: Klucel (hydroxypropylcellulose) (HPC)) is reported as 88 % of control.
For `CCN(CC)CC.CCOc1ccc(NC(=O)N=C=[N-])cc1.[CH-]1CCCCC1.[CH-]1CCCCC1.[CH-]1CCCCC1.[Cl-].[Sn+4]`, the T/C (dose: 6.0 mg/kg/injection, schedule: Q01DX005 (ip), vehicle: Klucel (hydroxypropylcellulose) (HPC)) was 101 % of control and the T/C (dose: 12.0 mg/kg/injection, schedule: Q01DX005 (ip), vehicle: Klucel (hydroxypropylcellulose) (HPC)) was 89 % of control.
For `CCOc1ccc(NC(=O)/C(=C\c2ccc(C)cc2)C(C)=O)cc1`, the T/C (dose: 50.0 mg/kg/injection, schedule: Q01DX005 (ip), vehicle: saline with Tween-80) was 106 % of control, the T/C (dose: 100.0 mg/kg/injection, schedule: Q01DX005 (ip), vehicle: saline with Tween-80) was 110 % of control and the T/C (dose: 200.0 mg/kg/injection, schedule: Q01DX005 (ip), vehicle: saline with Tween-80) was 104 % of control.
`CCc1noc2cc(-c3ccccc3)n(C)c(=O)c12` was tested, and the T/C [4] was 100 % of control, the T/C [5] was 104 % of control and the T/C [6] was 105 % of control.
`COc1cc(NS(C)(=O)=O)ccc1Nc1c2ccccc2nc2cc(C(F)(F)F)c(N)cc12` was tested, and the T/C (dose: 13.0 mg/kg/injection, schedule: Q04DX003 (ip), vehicle: distilled water + Tween-80) was 162 % of control, the T/C (dose: 21.6 mg/kg/injection, schedule: Q04DX003 (ip), vehicle: distilled water + Tween-80) was 180 % of control and the T/C (dose: 25.0 mg/kg/injection, schedule: Q01DX009 (ip), vehicle: Klucel (hydroxypropylcellulose) (HPC)) was 172 % of control. For the same compound, the T/C (dose: 36.0 mg/kg/injection, schedule: Q04DX003 (ip), vehicle: distilled water + Tween-80) was 190 % of control, the T/C [7] was 152 % of control and 182 % of control and the T/C (dose: 60.0 mg/kg/injection, schedule: Q04DX003 (ip), vehicle: distilled water + Tween-80) was 228 % of control. For the same compound, the T/C [8] was 123 % of control.
With `COc1ccc(N(N=O)c2c(C)cc(C)cc2C)c(C(=O)O)c1` the T/C [4] was 96 % of control, the T/C [5] was 96 % of control and the T/C [6] was 98 % of control.
`COc1cc(CCN(C)C)c([N+](=O)[O-])cc1OC` was tested, and the T/C (dose: 12.5 mg/kg/injection, schedule: Q01DX009 (ip), vehicle: saline) was 90 % of control and the T/C (dose: 25.0 mg/kg/injection, schedule: Q01DX009 (ip), vehicle: saline) was 89 % of control.
With `CCOP(=O)(O)OCC.[Ga]` the T/C (dose: 100.0 mg/kg/injection, schedule: Q04DX002 (ip), vehicle: saline with Tween-80) was 106 % of control, the T/C (dose: 200.0 mg/kg/injection, schedule: Q04DX002 (ip), vehicle: saline with Tween-80) was 103 % of control and the T/C (dose: 400.0 mg/kg/injection, schedule: Q04DX002 (ip), vehicle: saline with Tween-80) was 97 % of control.
`CC(=O)c1ccc2oc(C(C)=O)cc2c1` was tested, and the T/C (dose: 2.5 mg/kg/injection, schedule: Q01DX009 (ip), vehicle: saline with Tween-80) was 97 % of control and the T/C (dose: 5.0 mg/kg/injection, schedule: Q01DX009 (ip), vehicle: saline with Tween-80) was 96 % of control.
`O=C1CCc2ccccc2C1C(=O)CC(O)(c1ccccc1)c1ccccc1` (stereo unspecified) was tested, and the T/C (dose: 12.5 mg/kg/injection, schedule: Q01DX009 (ip), vehicle: saline sonified) was 95 % of control, the T/C (dose: 25.0 mg/kg/injection, schedule: Q01DX009 (ip), vehicle: saline sonified) was 100 % of control and the T/C (dose: 50.0 mg/kg/injection, schedule: Q01DX009 (ip), vehicle: saline sonified) was 95 % of control.
With `NN1C(=O)C2C3C=CC(O3)C2C1=O` (stereo unspecified) the T/C [1] was 98 % of control, the T/C [2] was 98 % of control and the T/C [3] was 100 % of control.
With `NCCOCCN` the T/C (dose: 60.0 mg/kg/injection, schedule: Q01DX005 (ip), vehicle: saline) was 100 % of control, the T/C (dose: 120.0 mg/kg/injection, schedule: Q01DX005 (ip), vehicle: saline) was 101 % of control and the T/C (dose: 240.0 mg/kg/injection, schedule: Q01DX005 (ip), vehicle: saline) was 95 % of control.
With `Cc1cc(N2CCN(c3cc(C)c4ccccc4n3)CC2)nc2ccccc12` the T/C [9] was 100 % of control, the T/C [10] was 95 % of control and the T/C [11] was 100 % of control.
`O=C1CSC(c2cccc(Br)c2)N1c1nncs1` (stereo unspecified) was tested, and the T/C (dose: 60.0 mg/kg/injection, schedule: Q01DX005 (ip), vehicle: saline with Tween-80) was 101 % of control, the T/C (dose: 120.0 mg/kg/injection, schedule: Q01DX005 (ip), vehicle: saline with Tween-80) was 97 % of control and the T/C (dose: 240.0 mg/kg/injection, schedule: Q01DX005 (ip), vehicle: saline with Tween-80) was 93 % of control.
With `C=C(C)[C@@H](/C=C/[C@@H](C)[C@H]1CC[C@H]2C3=CC[C@H]4C[C@@H](O)CC[C@]4(C)[C@H]3CC[C@]12C)CC` the T/C [9] was 90 % of control, the T/C (dose: 50.0 mg/kg/injection, schedule: Q04DX003 (ip), vehicle: saline with Tween-80) was 95 % of control and the T/C [10] was 90 % of control. The T/C (dose: 100.0 mg/kg/injection, schedule: Q04DX003 (ip), vehicle: saline with Tween-80) was 90 % of control, the T/C [11] was 100 % of control and the T/C (dose: 200.0 mg/kg/injection, schedule: Q04DX003 (ip), vehicle: saline with Tween-80) was 95 % of control.
For `O=C(CCl)c1ccc2ccc3c(c2c1)Nc1ccccc1S3`, the T/C [7] was 96 % of control, the T/C [8] was 99 % of control and the T/C [12] was 93 % of control.
With `CC1CCC2(OC2(C)C)C(=O)C1` (stereo unspecified) the T/C (dose: 100.0 mg/kg/injection, schedule: Q04DX002 (ip), vehicle: saline) was 103 % of control, the T/C (dose: 200.0 mg/kg/injection, schedule: Q04DX002 (ip), vehicle: saline) was 103 % of control and the T/C (dose: 400.0 mg/kg/injection, schedule: Q04DX002 (ip), vehicle: saline) was 104 % of control.
In the case of `Nc1nc(C2CCCCC2)c(I)c(=O)[nH]1`, the T/C [4] is reported as 101 % of control, the T/C [5] is reported as 103 % of control and the T/C [6] is reported as 97 % of control.
With `Cn1c(C=O)cc2c(Cl)nccc21` the T/C [4] was 103 % of control, the T/C [5] was 103 % of control and the T/C [6] was 101 % of control.
With `COC(=O)/C=C1/Nc2cnc(Nc3ccccc3)nc2N(c2ccccc2)C1=O` the T/C (dose: 40.0 mg/kg/injection, schedule: Q01DX009 (ip), vehicle: saline) was 87 % of control, the T/C (dose: 80.0 mg/kg/injection, schedule: Q01DX009 (ip), vehicle: saline) was 89 % of control and the T/C (dose: 160.0 mg/kg/injection, schedule: Q01DX009 (ip), vehicle: saline) was 87 % of control.
`Cc1sc(N=Nc2ccc(N(C)C)cc2)[n+]([O-])c1C` was tested, and the T/C [7] was 111 % of control, the T/C [8] was 102 % of control and the T/C [12] was 104 % of control.
For `CCCCCSC1=NC(c2ccc(C)cc2)(c2ccc(C)cc2)C(=O)N1`, the T/C (dose: 50.0 mg/kg/injection, schedule: Q01DX005 (ip), vehicle: Klucel + Tween-80) was 100 % of control, the T/C (dose: 100.0 mg/kg/injection, schedule: Q01DX005 (ip), vehicle: Klucel + Tween-80) was 100 % of control and the T/C (dose: 200.0 mg/kg/injection, schedule: Q01DX005 (ip), vehicle: Klucel + Tween-80) was 98 % of control.
